# From patent US7566733B2, “Benzimidazole derivatives useful as selective androgen receptor modulators (sarms)” (priority 2004, dated 2009)
# Legend:
# [1] = system: castrated male Sprague Dawley rats; experiment: Ventral Prostate and Seminal Vesicle Weight In Vivo Assay; details: inhibition of testosterone-enhanced prostate weight; immature castrated rats, once daily for five days, usually orally 40 mg/kg, with testosterone propionate 2 mg/kg s.c. Note: key: active: the non weight adjusted prostate weight was ≦40 mg or the % Inhibition prostate weight, body weight adjusted was ≧40%@2 mg/day dosage; inactive: did not meet the specified criteria defined above.
# [2] = system: castrated male Sprague Dawley rats; experiment: Ventral Prostate and Levator Ani Weight In Vivo Assay; parameters: key: active: greater than or equal to 25% stimulation of levator ani at 30 mg/kg; details: mature castrated rats, once daily for 14 days, oral gavage, 30 mg/kg
# Experimental: Ventral Prostate and Levator Ani Weight In Vivo Assay
# Mature (150 to 200 g) castrated male Sprague Dawley rats (Charles River) were treated once daily for 14 days with test compound (usually administered by oral gavage at up to the desired dosage, up to 30 mg/kg in a volume of 1 mL, in 30% cyclodextrin or 0.5% methylcellulose vehicle), or with testosterone propionate (administered subcutaneously by injection at the nape of the neck at 5 mg/kg, in a volume of 0.1 mL in sesame oil), or with vehicle (1 mL of 30% cyclodextrin or 0.5% methylcellulose, given orally). On the fifteenth day, the rats were euthanized by asphyxiation in carbon dioxide. Ventral prostates and levator ani muscles were removed and their wet weights determined.
# Test compound activity was determined as the percent stimulation of tissue weight, with the vehicle-treated control group set to zero percent and the testosterone alone-treated control group set to 100%. A compound was designated as “active” if it produced greater than or equal to 25% stimulation of levator ani at 30 mg/kg.
Compound,Activity [1],Activity (percent stimulation of levator ani weight) [2]
"CC(O)(CC#N)c1nc2cc(Cl)c(Cl)cc2[nH]1 (centres unmarked) [Compound 7, 3-(5,6-dichloro-1H-benzoimidazol-2-yl)-3-hydroxy-butyronitrile]",active,active
"FC(F)(F)C(F)(F)c1nc2cc(Cl)c(Cl)cc2[nH]1 [Compound 154, 5,6-Dichloro-2-(pentafluoroethyl)-1H-benzoimidazole]",inactive,
"O=[N+]([O-])c1cc2nc(C(O)C(F)(F)F)[nH]c2cc1[N+](=O)[O-] (centres unmarked) [Compound 155, 1-(5,6-Dinitro-1H-benzoimidazol-2-yl-)2,2,2-trifluoro-ethanol]",inactive,
"OC(c1nc2cc(Cl)ccc2[nH]1)C(F)(F)F (centres unmarked) [Compound 156, 1-(5-1H-benzoimidazol-2-yl-)2,2,2-trifluoro-ethanol]",inactive,
"COc1cc2nc(C(O)C(F)(F)F)[nH]c2cc1OC (centres unmarked) [Compound 157, 1-(5,6-Dimethoxy-1H-benzoimidazol-2-yl-)2,2,2-trifluoro-ethanol]",inactive,
"O=C(c1nc2cc(Cl)c(F)cc2[nH]1)C(F)(F)F [Compound 159, 1-(5-Chloro-6-fluoro-1H-benzoimidazol-2-yl-)2,2,2-trifluoro-ethanone]",active,
"Cc1cc2[nH]c(C(=O)C(F)(F)F)nc2cc1Cl [Compound 160, 1-(5-Chloro-6-methyl-1H-benzoimidazol-2-yl-)2,2,2-trifluoro-ethanone]",active,
